Measured values as given in patent publication US20090099195A1 (ASTRAZENECA AB, priority 2007, published 2009).

Target: T1, hP2X3 (human Purinergic P2X receptors subtype 3), clone B (Homo sapiens, UniProt P56373)
T1 sequence (P56373 1-397): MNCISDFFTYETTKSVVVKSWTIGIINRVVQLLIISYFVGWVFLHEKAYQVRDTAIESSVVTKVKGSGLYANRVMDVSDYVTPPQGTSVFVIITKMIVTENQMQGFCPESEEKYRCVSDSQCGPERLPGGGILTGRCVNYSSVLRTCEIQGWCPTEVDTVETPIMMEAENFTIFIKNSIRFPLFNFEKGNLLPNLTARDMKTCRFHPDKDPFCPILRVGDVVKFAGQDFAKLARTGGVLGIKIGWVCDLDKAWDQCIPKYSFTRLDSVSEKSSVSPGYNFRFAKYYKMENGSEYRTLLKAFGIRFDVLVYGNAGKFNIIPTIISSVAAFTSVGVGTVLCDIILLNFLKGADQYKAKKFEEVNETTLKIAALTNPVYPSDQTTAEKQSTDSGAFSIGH
Assay: hP2X3 FLIPR calcium (Fluo-4) antagonist assay, clone B
Details: Human P2X3 FLIPR Clone B IC50 (nM), RLE cells expressing hP2X3 clone B (NM_002559); agonist 500 nM α,β-methylene-ATP

IC50 [nM]	SMILES
1800	CC(=O)N1CCN(c2nc3c(c(N4CCC[C@@H]4C(=O)N4CCc5ccccc54)n2)CN(C(C)C)C3=O)CC1 [Example 279, 4-(4-acetylpiperazin-1-yl)-2-[(2R)-2-(2,3-dihydroindole-1-carbonyl)pyrrolidin-1-yl]-8-propan-2-yl-3,5,8-triazabicyclo[4.3.0]nona-1,3,5-trien-7-one]
5100	CC(=O)N1CCN(c2nc3c(c(N4CCCC4c4nc(-c5ccccc5)no4)n2)CN(C(C)C)C3=O)CC1 (stereo not drawn) [Example 280, 4-(4-acetylpiperazin-1-yl)-2-[2-(3-phenyl-1,2,4-oxadiazol-5-yl)pyrrolidin-1-yl]-8-propan-2-yl-3,5,8-triazabicyclo[4.3.0]nona-1,3,5-trien-7-one]
330	CCOc1ccc(CC2CCCN2c2nc(N3CCN(C(C)=O)CC3)nc3c2CN(C(C)C)C3=O)cc1 (stereo not drawn) [Example 289, 2-(4-acetylpiperazin-1-yl)-4-[2-[(4-ethoxyphenyl)methyl]pyrrolidin-1-yl]-6-isopropyl-5H-pyrrolo[4,3-e]pyrimidin-7-one]
2000	COc1ccccc1CC1CCCN1c1nc(N2CCN(C(C)=O)CC2)nc2c1CN(C(C)C)C2=O (stereo not drawn) [Example 290, 2-(4-acetylpiperazin-1-yl)-6-isopropyl-4-[2-[(2-methoxyphenyl)methyl]pyrrolidin-1-yl]-5H-pyrrolo[3,4-d]pyrimidin-7-one]
490	COc1cccc(CC2CCCN2c2nc(N3CCN(C(C)=O)CC3)nc3c2CN(C(C)C)C3=O)c1 (stereo not drawn) [Example 291, 2-(4-acetylpiperazin-1-yl)-6-isopropyl-4-[2-[(3-methoxyphenyl)methyl]pyrrolidin-1-yl]-5H-pyrrolo[3,4-d]pyrimidin-7-one]
2500	CC(=O)N1CCN(c2nc3c(c(N4CCC[C@@H]4C(=O)OCc4ccc(Cl)cc4)n2)CN(C(C)C)C3=O)CC1 [Example 301, (4-chlorophenyl)methyl (2R)-1-[4-(4-acetylpiperazin-1-yl)-7-oxo-8-propan-2-yl-3,5,8-triazabicyclo[4.3.0]nona-1,3,5-trien-2-yl]pyrrolidine-2-carboxylate]
3100	CC(=O)N1CCN(c2nc3c(c(N4CCC[C@@H]4C(=O)NC4CCCCC4)n2)CN(C(C)C)C3=O)CC1 [Example 302, (2R)-1-[4-(4-acetylpiperazin-1-yl)-7-oxo-8-propan-2-yl-3,5,8-triazabicyclo[4.3.0]nona-1,3,5-trien-2-yl]-N-cyclohexyl-pyrrolidine-2-carboxamide]
2300	CC(=O)N1CCN(c2nc3c(c(N4CCC[C@@H]4C(=O)N4CCC(C)CC4)n2)CN(C(C)C)C3=O)CC1 [Example 303, 4-(4-acetylpiperazin-1-yl)-2-[(2R)-2-(4-methylpiperidine-1-carbonyl)pyrrolidin-1-yl]-8-propan-2-yl-3,5,8-triazabicyclo[4.3.0]nona-2,4,10-trien-7-one]
2400	CC(=O)N1CCN(c2nc(NC(C)(C)Cc3ccc(F)cc3)c3c(n2)C(=O)N(C2CCOCC2)C3)CC1 [Example 305, 3-(4-acetylpiperazin-1-yl)-5-[[1-(4-fluorophenyl)-2-methyl-propan-2-yl]amino]-8-(oxan-4-yl)-2,4,8-triazabicyclo[4.3.0]nona-1,3,5-trien-9-one]
160	CCC(C)N1Cc2c(NC(C)(C)Cc3ccc(F)cc3)nc(N3CCN(C(C)=O)CC3)nc2C1=O (stereo not drawn) [Example 312, 2-(4-acetylpiperazin-1-yl)-6-sec-butyl-4-(1-(4-fluorophenyl)-2-methylpropan-2-ylamino)-5H-pyrrolo[3,4-d]pyrimidin-7(6H)-one]
280	CC(=O)N1CCN(c2nc(NC(C)(C)Cc3ccc(F)cc3)c3c(n2)C(=O)N(C(C)C(C)C)C3)CC1 (stereo not drawn) [Example 313, 2-(4-acetylpiperazin-1-yl)-4-(1-(4-fluorophenyl)-2-methylpropan-2-ylamino)-6-(3-methylbutan-2-yl)-5H-pyrrolo[3,4-d]pyrimidin-7(6H)-one]
670	COCC(C)N1Cc2c(NC(C)(C)Cc3ccc(F)cc3)nc(N3CCN(C(C)=O)CC3)nc2C1=O (stereo not drawn) [Example 314, 2-(4-acetylpiperazin-1-yl)-4-(1-(4-fluorophenyl)-2-methylpropan-2-ylamino)-6-(1-methoxypropan-2-yl)-5H-pyrrolo[3,4-d]pyrimidin-7(6H)-one]
3000	CC(=O)N1CCN(c2nc(NC(C)(C)Cc3ccc(F)cc3)c3c(n2)C(=O)N(Cc2ccccc2Cl)C3)CC1 [Example 315, 2-(4-acetylpiperazin-1-yl)-6-(2-chlorobenzyl)-4-(1-(4-fluorophenyl)-2-methylpropan-2-ylamino)-5H-pyrrolo[3,4-d]pyrimidin-7(6H)-one]
380	CC(=O)N(Cc1cc2ccccc2cn1)c1nc(N2CCN(C(C)=O)[C@@H](C)C2)nc2c1CN(C(C)C)C2=O [Example 325, (S)—N-(2-(4-acetyl-3-methylpiperazin-1-yl)-6-isopropyl-7-oxo-6,7-dihydro-5H-pyrrolo[3,4-d]pyrimidin-4-yl)-N-(isoquinolin-3-ylmethyl)acetamide]
590	CC(=O)N(Cc1cc2ccccc2cn1)c1nc(N2CCN(C(C)=O)[C@H](C)C2)nc2c1CN(C(C)C)C2=O [Example 326, (R)—N-(2-(4-acetyl-3-methylpiperazin-1-yl)-6-isopropyl-7-oxo-6,7-dihydro-5H-pyrrolo[3,4-d]pyrimidin-4-yl)-N-(isoquinolin-3-ylmethyl)acetamide]
91	CC(=O)N1CCN(c2nc(NCc3cnc4ccccc4c3)c3c(n2)C(=O)N(C(C)C)C3)C[C@@H]1C [Example 327, (S)-2-(4-acetyl-3-methylpiperazin-1-yl)-6-isopropyl-4-(quinolin-3-ylmethylamino)-5H-pyrrolo[3,4-d]pyrimidin-7(6H)-one]
62	CC(=O)N1CCN(c2nc(NCc3cnc4ccccc4c3)c3c(n2)C(=O)N(C(C)C)C3)C[C@H]1C [Example 328, (R)-2-(4-acetyl-3-methylpiperazin-1-yl)-6-isopropyl-4-(quinolin-3-ylmethylamino)-5H-pyrrolo[3,4-d]pyrimidin-7(6H)-one]
8900	CC(C)N1Cc2c(NCc3cnc4ccccc4c3)nc(N3CCN(S(C)(=O)=O)CC3)nc2C1=O [Example 329, 6-(1-methylethyl)-2-[4-(methylsulfonyl)piperazin-1-yl]-4-[(quinolin-3-ylmethyl)amino]-5,6-dihydro-7H-pyrrolo[3,4-d]pyrimidin-7-one]
830	CC(=O)N1CCN(c2nc(NC(C)(C)Cc3cccc(C)c3)c3c(n2)C(=O)N(C(C)C)C3)CC1 [Example 333, 2-(4-acetylpiperazin-1-yl)-6-isopropyl-4-(2-methyl-1-m-tolylpropan-2-ylamino)-5H-pyrrolo[3,4-d]pyrimidin-7(6H)-one]
47	CC(=O)N1CCN(c2nc3c(c(N(C)Cc4cnc5ccccc5c4)n2)CN(C(C)C)C3=O)CC1 [Example 346, 2-(4-acetylpiperazin-1-yl)-6-isopropyl-4-(methyl(quinolin-3-ylmethyl)amino)-5H-pyrrolo[3,4-d]pyrimidin-7(6H)-one]
2900	CC(=O)N1CCN(c2nc3c(c(N(C)Cc4cc5ccccc5nc4C)n2)CN(C(C)C)C3=O)CC1 [Example 347, 2-(4-acetylpiperazin-1-yl)-6-isopropyl-4-(methyl((2-methylquinolin-3-yl)methyl)amino)-5H-pyrrolo[3,4-d]pyrimidin-7(6H)-one]
